# Source: US8959984B2, “Proteome-wide quantification of small molecule binding to cellular target proteins” (priority 2007, dated 2015)
# Like-named read-outs stand apart in the source and are kept apart here.
# How the values were obtained:
# RPL7 = RPL7 (Homo sapiens, UniProt P18124); assay: binding to AX14596 beads (HeLa lysate, SILAC MS); parameters: endogenous in cells; host or cells: HeLa S3
# Protocol: (§1) Differentially SILAC-encoded cell lysates were either incubated with the inhibitor beads displaying immobilized AX14596 or control resin devoid of ligand. In parallel, the supernatant from the first binding step was subjected to a second incubation with the AX14596 resin (FIG. 4). The resulting three elution fractions were combined, resolved by gel electrophoresis, proteolytically digested and the relative abundance of the retained proteins quantified. Proteins showing considerable binding to the control resin were identified as non-specific interactors and therefore not considered further. […] These target-specific ratios were similar in “label switch” experiments (FIGS. 6a and 6c). The binding equilibrium was determined in parallel control SILAC experiments as well as the excess of the immobilized compound over its cellular targets, the excess preferably being a molar excess (FIG. 7 and FIG. 8).
# (§2) Cysteine carbamidomethylation was set as a fixed modification and N-acetyl protein and oxidized methionine were allowed as variable modifications. Spectra that were determined to result from heavy labeled peptides in the pre-search detection of SILAC partners by MaxQuant were searched with the fixed modifications Lys^4, Lys^8, Arg^6 and Arg^10, whereas MS/MS spectra for which no SILAC state could be assigned before database searching were searched with Lys^4, Lys^8, Arg^6 and Arg^10 as variable modifications. The mass tolerance was set to 5 ppm for monoisotopic precursor ions and to 0.5 Da for MS/MS peaks. The minimum peptide length was set to 6 amino acids and up to three missed cleavages and three isotopically labeled amino acids were permitted per peptide. The accepted false discovery rate (FDR) was 1% for the proteins and peptides. The cut-off for the posterior error probability (PEP) of peptides was set to 10%. Peptide PEPs were determined by generating Mascot score and peptide-length-dependent histograms for both the forward and the reverse hits and then deriving the probability of a false identification for a given top-scoring peptide using Bayes' theorem. The PEPs of peptides belonging to the same proteins were then multiplied. Each peptide sequence was considered only once with the lowest PEP determined in case of multiple sequencing of the same isotopic pattern or of peptide species with different SILAC, charge or modification states. Proteins were then sorted according to their products of their peptide PEPs and included until a FDR of 1% was reached according to the fraction of reverse proteins contained in the protein list. In addition to the FDR threshold applied for protein identification, proteins were only included when they were identified with at least two peptides (of which one was required to be unique for the protein) and quantified if at least on quantifiable SILAC pair was associated with them. Outliers were not removed as protein ratios were calculated as the median instead of the average of all peptide ratios. For peptides shared among different identified proteins, SILAC ratios were only considered for the ratio of the protein identified with the highest number of unique peptides. Protein ratios for the different in vitro association experiments were corrected for the initial SILAC pooling ratio, which was determined from the median of protein ratios in pooled SILAC-encoded cell extracts.
# SPR = SPR (Homo sapiens, UniProt P35270); assay: binding to AX14596 beads (HeLa lysate, SILAC MS); parameters: endogenous in cells; host or cells: HeLa S3
# SPR, sequence (P35270 whole entry): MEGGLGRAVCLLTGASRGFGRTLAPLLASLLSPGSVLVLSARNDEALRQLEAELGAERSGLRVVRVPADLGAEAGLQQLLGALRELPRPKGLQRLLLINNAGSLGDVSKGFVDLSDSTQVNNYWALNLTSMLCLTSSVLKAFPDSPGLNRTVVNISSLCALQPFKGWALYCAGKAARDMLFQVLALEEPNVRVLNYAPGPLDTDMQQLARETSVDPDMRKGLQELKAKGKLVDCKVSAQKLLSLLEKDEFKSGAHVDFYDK
# Protocol: as §1, §2
# MNK1 (MKNK1) = MNK1 (MKNK1) (Homo sapiens, UniProt Q9BUB5); assay: binding to AX14596 beads (HeLa lysate, SILAC MS); parameters: endogenous in cells; host or cells: HeLa S3
# MNK1 (MKNK1), sequence (Q9BUB5 whole entry): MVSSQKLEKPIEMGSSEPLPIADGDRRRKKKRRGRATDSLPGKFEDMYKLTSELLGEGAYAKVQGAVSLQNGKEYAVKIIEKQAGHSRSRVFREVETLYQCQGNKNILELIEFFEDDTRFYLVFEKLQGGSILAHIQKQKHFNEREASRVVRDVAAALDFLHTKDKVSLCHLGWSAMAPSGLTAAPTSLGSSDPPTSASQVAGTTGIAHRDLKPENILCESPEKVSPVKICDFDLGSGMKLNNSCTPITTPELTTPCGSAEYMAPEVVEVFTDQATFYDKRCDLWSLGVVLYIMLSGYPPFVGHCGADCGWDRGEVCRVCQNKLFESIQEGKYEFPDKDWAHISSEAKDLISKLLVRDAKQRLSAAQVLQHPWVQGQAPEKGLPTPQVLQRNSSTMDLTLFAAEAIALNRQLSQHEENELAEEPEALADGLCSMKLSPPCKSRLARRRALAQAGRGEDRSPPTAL
# Protocol: as §1, §2
# NUDT12 = NUDT12 (Homo sapiens, UniProt Q9BQG2); assay: binding to AX14596 beads (HeLa lysate, SILAC MS); parameters: endogenous in cells; host or cells: HeLa S3
# NUDT12, sequence (Q9BQG2 whole entry): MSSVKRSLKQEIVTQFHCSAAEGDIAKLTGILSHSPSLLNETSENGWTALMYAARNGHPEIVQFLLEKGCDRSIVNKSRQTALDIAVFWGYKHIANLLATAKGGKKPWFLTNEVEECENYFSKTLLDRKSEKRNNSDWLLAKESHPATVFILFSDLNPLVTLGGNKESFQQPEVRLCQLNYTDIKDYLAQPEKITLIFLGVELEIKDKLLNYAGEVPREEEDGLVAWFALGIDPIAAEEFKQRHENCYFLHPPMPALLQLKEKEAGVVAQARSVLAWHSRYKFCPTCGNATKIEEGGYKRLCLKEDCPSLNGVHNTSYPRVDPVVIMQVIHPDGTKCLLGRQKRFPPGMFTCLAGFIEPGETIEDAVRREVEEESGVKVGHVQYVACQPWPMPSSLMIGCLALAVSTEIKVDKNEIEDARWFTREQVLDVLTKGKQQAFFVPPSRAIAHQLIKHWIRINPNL
# Protocol: as §1, §2
# NAMPT = NAMPT (Homo sapiens, UniProt P43490); assay: binding to AX14596 beads (HeLa lysate, SILAC MS); parameters: endogenous in cells; host or cells: HeLa S3
# NAMPT, sequence (P43490 whole entry): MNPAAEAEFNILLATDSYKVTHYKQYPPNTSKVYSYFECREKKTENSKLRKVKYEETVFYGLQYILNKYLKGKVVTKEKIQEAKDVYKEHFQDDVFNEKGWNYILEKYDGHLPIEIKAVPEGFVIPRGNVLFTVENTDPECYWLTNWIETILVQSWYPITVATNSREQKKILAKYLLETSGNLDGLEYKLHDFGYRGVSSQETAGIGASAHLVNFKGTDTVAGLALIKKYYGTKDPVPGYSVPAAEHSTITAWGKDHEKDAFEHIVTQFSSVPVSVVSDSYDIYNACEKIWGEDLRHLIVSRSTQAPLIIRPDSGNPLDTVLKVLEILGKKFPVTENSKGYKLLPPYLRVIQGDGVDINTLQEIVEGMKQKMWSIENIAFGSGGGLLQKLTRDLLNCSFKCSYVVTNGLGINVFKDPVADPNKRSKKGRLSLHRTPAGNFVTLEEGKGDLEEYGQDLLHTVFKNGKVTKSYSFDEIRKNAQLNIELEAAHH
# Protocol: as §1, §2
# CK1e (CSNK1E) = CK1e (CSNK1E) (Homo sapiens, UniProt P49674); assay: binding to AX14596 beads (HeLa lysate, SILAC MS); parameters: endogenous in cells; host or cells: HeLa S3
# CK1e (CSNK1E), sequence (P49674 whole entry): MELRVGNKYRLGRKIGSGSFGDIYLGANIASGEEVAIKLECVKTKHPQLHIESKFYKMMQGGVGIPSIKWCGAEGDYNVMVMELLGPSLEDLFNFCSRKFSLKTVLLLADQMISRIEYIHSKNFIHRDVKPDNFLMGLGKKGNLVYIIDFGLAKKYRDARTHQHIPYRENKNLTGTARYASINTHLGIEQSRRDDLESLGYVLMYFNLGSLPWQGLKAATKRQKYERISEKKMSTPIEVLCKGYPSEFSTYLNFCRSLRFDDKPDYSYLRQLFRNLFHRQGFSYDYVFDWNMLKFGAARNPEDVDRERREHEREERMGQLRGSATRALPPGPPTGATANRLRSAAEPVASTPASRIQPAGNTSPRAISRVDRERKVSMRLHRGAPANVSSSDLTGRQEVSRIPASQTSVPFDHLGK
# Protocol: as §1, §2
# SNRPG = SNRPG (Homo sapiens, UniProt P62308); assay: binding to AX14596 beads (HeLa lysate, SILAC MS); parameters: endogenous in cells; host or cells: HeLa S3
# SNRPG, sequence (P62306 whole entry): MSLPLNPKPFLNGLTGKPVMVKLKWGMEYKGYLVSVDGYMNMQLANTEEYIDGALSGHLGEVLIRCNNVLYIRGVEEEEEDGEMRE
# SNRPG, sequence (P62304 whole entry, further chain): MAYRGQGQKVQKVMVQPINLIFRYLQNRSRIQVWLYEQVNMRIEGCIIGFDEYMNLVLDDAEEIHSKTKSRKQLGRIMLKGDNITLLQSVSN
# SNRPG, sequence (P62308 whole entry): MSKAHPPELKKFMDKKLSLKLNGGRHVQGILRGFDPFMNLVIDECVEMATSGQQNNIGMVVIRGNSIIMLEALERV
# Protocol: as §1, §2
# TLK2 = molecular target: T1, TLK2 (Homo sapiens, UniProt Q86UE8); assay: binding to immobilized V16742 (IVA1/IVA2, HeLa lysate, MS)
# T1 construct: endogenous in cells; host or cells: HeLa S3
# T1 sequence (Q86UE8 whole entry): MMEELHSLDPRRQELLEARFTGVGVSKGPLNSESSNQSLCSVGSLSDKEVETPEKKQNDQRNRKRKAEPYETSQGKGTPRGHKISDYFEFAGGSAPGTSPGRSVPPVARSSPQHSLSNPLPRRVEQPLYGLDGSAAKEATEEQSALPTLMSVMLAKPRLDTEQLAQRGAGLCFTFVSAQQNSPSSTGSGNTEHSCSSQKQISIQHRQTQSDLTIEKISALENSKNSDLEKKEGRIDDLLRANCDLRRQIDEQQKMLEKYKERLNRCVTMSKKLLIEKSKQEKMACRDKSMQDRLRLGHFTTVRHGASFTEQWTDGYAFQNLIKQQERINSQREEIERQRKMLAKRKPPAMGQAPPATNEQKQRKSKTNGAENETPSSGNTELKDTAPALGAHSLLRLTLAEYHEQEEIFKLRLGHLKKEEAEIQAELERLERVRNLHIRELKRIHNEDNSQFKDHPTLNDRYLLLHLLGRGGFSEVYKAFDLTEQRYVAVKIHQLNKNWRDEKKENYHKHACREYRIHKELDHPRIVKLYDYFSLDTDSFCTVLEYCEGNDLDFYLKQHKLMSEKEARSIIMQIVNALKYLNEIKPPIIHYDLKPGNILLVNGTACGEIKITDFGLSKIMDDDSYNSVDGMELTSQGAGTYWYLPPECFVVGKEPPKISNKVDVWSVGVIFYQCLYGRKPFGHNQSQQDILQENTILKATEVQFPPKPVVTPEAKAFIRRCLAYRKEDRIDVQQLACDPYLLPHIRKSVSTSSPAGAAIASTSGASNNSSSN
# Erk1 = Erk1 (Homo sapiens, UniProt P27361); assay: as above
# Erk1, sequence (P27361 whole entry): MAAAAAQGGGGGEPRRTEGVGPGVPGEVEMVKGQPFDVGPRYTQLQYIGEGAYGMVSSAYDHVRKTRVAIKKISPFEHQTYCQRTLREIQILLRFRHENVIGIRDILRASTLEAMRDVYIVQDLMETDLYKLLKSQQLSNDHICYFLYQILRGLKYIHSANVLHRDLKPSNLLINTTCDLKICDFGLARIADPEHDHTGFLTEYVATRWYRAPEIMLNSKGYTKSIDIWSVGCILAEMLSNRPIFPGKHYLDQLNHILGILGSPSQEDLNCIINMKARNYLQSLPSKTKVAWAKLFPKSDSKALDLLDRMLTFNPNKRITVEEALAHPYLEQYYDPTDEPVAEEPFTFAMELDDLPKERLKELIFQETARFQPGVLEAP
# Protocol: Using the three populations of SILAC-labelled cells and the three different inhibitor resins, two parallel experiments termed as IVA1 (In Vitro Association, Setting 1) and IVA2 (In Vitro Association, Setting 2) were performed. […] In IVA2, SILAC encoded HeLa cells lysates were subjected to two parallel rounds of consecutive affinity purification at the highest ligand density where the supernatant left behind after the first IVA was used for the second round of IVA. An additional incubation of Hela cell lysate with control beads devoid of immobilized inhibitor was also performed to distinguish background binders.
# A common IPI identifier template was assigned to peptides based on the MASCOT html-output file for the IVA2 setting in first experiment. The proteins hits identified based on unique peptides were filtered for mass error and MASCOT score. Eventually, the hits identified in both first and second IVA2 experiments were quantified for IVA2 setting of first experiment by MSQuant. […] A next round of sorting was done to filter out protein hits that are less than 50% enriched in the IVA second round compared to IVA first round. This is because at enrichment below 50%, there could be significant errors in deducing kd values for the corresponding targets. […] The same set of targets was also quantified in IVA2 and IVA1 settings of an independent second experiment.
# RPL7A = RPL7A (Homo sapiens, UniProt P62424)
# SNRPE = SNRPE (Homo sapiens, UniProt P62304)
# SNRPE, sequence (P62304 whole entry): as the sequence (P62304 whole entry, further chain) above
smiles,measurement,setting,value
COc1cc2ncnc(Nc3ccc(F)c(Cl)c3)c2cc1OCCCN [AX14596],Ki,RPL7,2310 µM
same,r (3 mg/1 mg lysate),RPL7,1.82
same,rAVERAGE (2. inc/1. inc),RPL7,0.96
same,rAVERAGE (control/1. inc),RPL7,0.19
same,Ki,SPR,1860 µM
same,r (3 mg/1 mg lysate),SPR,2.91
same,r (5 h/2.5 h inc. time),SPR,2.43
same,rAVERAGE (2. inc/1. inc),SPR,0.95
same,rAVERAGE (control/1. inc),SPR,0.02
same,Ki,MNK1 (MKNK1),922 µM
same,r (3 mg/1 mg lysate),MNK1 (MKNK1),2.94
same,r (5 h/2.5 h inc. time),MNK1 (MKNK1),1.05
same,rAVERAGE (2. inc/1. inc),MNK1 (MKNK1),0.90
same,rAVERAGE (control/1. inc),MNK1 (MKNK1),0.04
same,Ki,NUDT12,16.1 µM
same,r (3 mg/1 mg lysate),NUDT12,2.24
same,r (5 h/2.5 h inc. time),NUDT12,0.91
same,rAVERAGE (2. inc/1. inc),NUDT12,0.14
same,rAVERAGE (control/1. inc),NUDT12,0.04
same,Ki,NAMPT,41.2 µM
same,r (3 mg/1 mg lysate),NAMPT,7.48
same,r (5 h/2.5 h inc. time),NAMPT,0.39
same,rAVERAGE (2. inc/1. inc),NAMPT,0.29
same,rAVERAGE (control/1. inc),NAMPT,0.04
same,Ki,CK1e (CSNK1E),4080 µM
same,r (3 mg/1 mg lysate),CK1e (CSNK1E),2.87
same,r (5 h/2.5 h inc. time),CK1e (CSNK1E),1.23
same,rAVERAGE (2. inc/1. inc),CK1e (CSNK1E),0.98
same,rAVERAGE (control/1. inc),CK1e (CSNK1E),0.09
same,Ki,SNRPG,87.6 µM
same,r (3 mg/1 mg lysate),SNRPG,2.54
same,rAVERAGE (2. inc/1. inc),SNRPG,0.47
same,rAVERAGE (control/1. inc),SNRPG,0.16
CC(C)n1c(=O)ccc2cnc(Nc3ccc(OCCN)cc3)nc21 [V16742],Percent bound at various 16742 conc,"TLK2; Experiment 1, 1.87 μM 16742",2.49%
same,Percent bound at various 16742 conc,"TLK2; Experiment 1, 8.74 μM 16742",3.89%
same,Percent bound at various 16742 conc,"TLK2; Experiment 1, 52 μM 16742",58.72%
same,Kd,"TLK2; Experiment 1, read-out: Kd",47.3 µM
same,Percent bound at various 16742 conc,"TLK2; Experiment 2, 1.87 μM 16742",1.24%
same,Percent bound at various 16742 conc,"TLK2; Experiment 2, 8.74 μM 16742",3.73%
same,Percent bound at various 16742 conc,"TLK2; Experiment 2, 52 μM 16742",41.78%
same,Kd,"TLK2; Experiment 2, read-out: Kd",80 µM
same,Kd,"TLK2; average of two experiments, read-out: Kd Avg",63.7 µM
same,Kd,Erk1,57.8 µM
same,Percent bound at various 16742 conc,"Erk1; Erk1, Experiment 1, 1.87 μM 16742",1.06%
same,Percent bound at various 16742 conc,"Erk1; Erk1, Experiment 1, 8.74 μM 16742",2.41%
same,Percent bound at various 16742 conc,"Erk1; Erk1, Experiment 1, 52 μM 16742",52.52%
same,Percent bound at various 16742 conc,"Erk1; Erk1, Experiment 2, 1.87 μM 16742",0.91%
same,Percent bound at various 16742 conc,"Erk1; Erk1, Experiment 2, 8.74 μM 16742",2.38%
same,Percent bound at various 16742 conc,"Erk1; Erk1, Experiment 2, 52 μM 16742",45.83%
same,Kd,"Erk1; Kd Avg, Erk1, average of two experiments",64.4 µM
same,Kd,"Erk1; Kd, Erk1, Experiment 2",71.1 µM
same,Kd,"Erk1; Kd, Erk1, immobilized V16742",64.4 µM
COc1cc2ncnc(Nc3ccc(F)c(Cl)c3)c2cc1OCCCN1CCOCC1 [gefitinib],rAVERAGE (10 nM/0 nM Gef.),RPL7A,0.92
same,rAVERAGE (100 nM/0 nM Gef.),RPL7A,0.88
same,rAVERAGE (1000 nM/0 nM Gef.),RPL7A,0.59
same,rAVERAGE (10000 nM/0 nM Gef.),RPL7A,0.79
same,rAVERAGE (10 nM/0 nM Gef.),SNRPE,0.70
same,rAVERAGE (100 nM/0 nM Gef.),SNRPE,1.11
same,rAVERAGE (1000 nM/0 nM Gef.),SNRPE,0.74
same,rAVERAGE (10000 nM/0 nM Gef.),SNRPE,0.93
